US7767696B2, “Pyrazole derivatives” (Merck Patent GmbH, priority 2005, dated 2010)

Key:
TIE-2 = TIE-2 (Homo sapiens, UniProt Q02763); assay: TIE-2 kinase flashplate assay (phosphorylation of poly(Glu, Tyr) with 33P-ATP); format: biochemical; details: read-out: Kinase-Inhibiting Activities IC50 TIE-2
Procedure: The TIE-2 tests can be carried out, for example, analogously to the methods indicated in WO 02/44156.
The assay determines the inhibiting activity of the substances to be tested in the phosphorylation of the substrate poly(Glu, Tyr) by Tie-2 kinase in the presence of radioactive ^33P-ATP. The phosphorylated substrate binds to the surface of a “flashplate” microtitre plate during the incubation time. After removal of the reaction mixture, the microtitre plate is washed a number of times and the radioactivity on its surface is subsequently measured. An inhibiting effect of the substances to be measured results in lower radioactivity compared with an undisturbed enzymatic reaction.

VEGFR (KDR) = molecular target: T1, VEGFR (KDR) (Homo sapiens, UniProt P35968); assay: VEGF receptor kinase assay (33P incorporation into pEY substrate); format: biochemical; details: read-out: Kinase-Inhibiting Activities IC50 VEGFR
T1 construct: cloning the cytoplasmic domain of the KDR kinase as an in frame fusion at the carboxyl terminus of the GST gene; made in house; host or cells: Spodoptera frugiperda (Sf21) insect cells, baculovirus vector pAcG2T
Procedure: VEGF receptor kinase activity is measured by incorporation of radiolabelled phosphate into 4:1 polyglutamic acid/tyrosine substrate (pEY). The phosphorylated pEY product is trapped on a filter membrane and the incorporation of radiolabelled phosphate is quantified by scintillation counting.
The intracellular tyrosine kinase domains of human KDR (Terman, B. I. et al. Oncogene (1991) Vol. 6, pp. 1677-1683.) and Flt-1 (Shibuya, M. et al. Oncogene (1990) Vol. 5, pp. 519-524) were cloned as glutathione S-transferase (GST) gene fusion proteins. This was accomplished by cloning the cytoplasmic domain of the KDR kinase as an in frame fusion at the carboxyl terminus of the GST gene. Soluble recombinant GST-kinase domain fusion proteins were expressed in Spodoptera frugiperda (Sf21) insect cells (Invitrogen) using a baculovirus expression vector (pAcG2T, Pharmingen).
Method B—VEGF Receptor Kinase Assay
1. Add 5 μl of inhibitor or control to the assay in 50% DMSO.
2. Add 35 μl of reaction mixture containing 5 μl of 10× reaction buffer, 5 μl of 25 mM ATP/10 μCi[^33P]ATP (Amersham) and 5 μl of 10× substrate.
3. Start the reaction by the addition of 10 μl of KDR (25 nM) in enzyme dilution buffer.
4. Mix and incubate at room temperature for 15 minutes.
5. Stop the reaction by the addition of 50 μl of stop solution.
6. Incubate at 4° C. for 15 minutes.
7. Transfer a 90 μl aliquot to filter plate.
8. Aspirate and wash 3 times with wash solution.
9. Add 30 μl of scintillation cocktail, seal plate and count in a Wallace Microbeta scintillation counter.

T1 sequence (P35968 786-1356 limits assumed): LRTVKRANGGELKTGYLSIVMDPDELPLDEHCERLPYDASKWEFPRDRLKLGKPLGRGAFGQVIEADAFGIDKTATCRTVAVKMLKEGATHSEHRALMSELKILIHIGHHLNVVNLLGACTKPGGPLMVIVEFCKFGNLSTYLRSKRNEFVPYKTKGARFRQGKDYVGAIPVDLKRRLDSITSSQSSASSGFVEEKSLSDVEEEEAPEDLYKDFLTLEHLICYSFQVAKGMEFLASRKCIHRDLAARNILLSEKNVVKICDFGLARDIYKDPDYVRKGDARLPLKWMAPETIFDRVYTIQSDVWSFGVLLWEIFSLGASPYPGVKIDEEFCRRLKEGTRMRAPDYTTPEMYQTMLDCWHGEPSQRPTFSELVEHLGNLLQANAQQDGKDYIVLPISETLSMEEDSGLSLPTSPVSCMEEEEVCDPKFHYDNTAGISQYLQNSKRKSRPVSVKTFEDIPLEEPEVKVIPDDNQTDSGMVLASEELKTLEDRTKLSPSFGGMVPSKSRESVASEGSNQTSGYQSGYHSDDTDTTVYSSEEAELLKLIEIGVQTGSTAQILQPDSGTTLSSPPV
Sequence of TIE-2 (Q02763 23-1124, species assumed): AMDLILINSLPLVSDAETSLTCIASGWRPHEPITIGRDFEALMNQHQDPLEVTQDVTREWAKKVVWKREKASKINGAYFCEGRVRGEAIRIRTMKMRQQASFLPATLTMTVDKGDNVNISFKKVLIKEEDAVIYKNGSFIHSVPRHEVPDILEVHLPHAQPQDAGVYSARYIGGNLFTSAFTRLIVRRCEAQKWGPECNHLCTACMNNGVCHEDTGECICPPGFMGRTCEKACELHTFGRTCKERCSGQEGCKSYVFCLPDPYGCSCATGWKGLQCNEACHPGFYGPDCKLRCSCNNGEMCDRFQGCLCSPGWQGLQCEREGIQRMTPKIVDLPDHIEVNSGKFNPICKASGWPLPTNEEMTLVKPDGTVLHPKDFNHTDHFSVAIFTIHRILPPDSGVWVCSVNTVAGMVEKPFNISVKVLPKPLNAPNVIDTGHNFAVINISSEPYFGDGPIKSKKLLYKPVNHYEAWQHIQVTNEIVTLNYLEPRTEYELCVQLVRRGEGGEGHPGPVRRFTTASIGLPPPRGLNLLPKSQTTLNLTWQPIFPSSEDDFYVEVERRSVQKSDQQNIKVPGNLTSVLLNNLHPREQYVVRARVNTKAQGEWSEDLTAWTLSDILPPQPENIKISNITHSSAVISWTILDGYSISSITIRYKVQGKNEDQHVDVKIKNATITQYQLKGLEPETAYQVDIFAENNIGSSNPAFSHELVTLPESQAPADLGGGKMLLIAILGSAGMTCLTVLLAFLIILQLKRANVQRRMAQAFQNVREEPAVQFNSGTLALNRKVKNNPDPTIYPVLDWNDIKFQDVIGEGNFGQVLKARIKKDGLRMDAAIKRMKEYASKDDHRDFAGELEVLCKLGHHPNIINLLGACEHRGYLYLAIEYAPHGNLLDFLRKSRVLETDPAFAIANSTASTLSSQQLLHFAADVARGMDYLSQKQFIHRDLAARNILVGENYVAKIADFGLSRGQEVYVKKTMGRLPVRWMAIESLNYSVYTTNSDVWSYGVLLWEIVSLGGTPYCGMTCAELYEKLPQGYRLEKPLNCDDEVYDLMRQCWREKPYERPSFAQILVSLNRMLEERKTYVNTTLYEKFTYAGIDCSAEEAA

Row | SMILES | IC50 (TIE-2) [nM] | IC50 (VEGFR (KDR)) [nM]
1 | CNC(=O)c1cc(Oc2ccc(NC(=O)Nc3cc(-c4ccco4)nn3-c3ccc(C)cc3)cc2)ccn1 [Compound 2, 1-[4-(2-methylaminocarbonylpyridin-4-yloxy)phenyl]-3-[5-(furan-2-yl)-2-(p-tolyl)-2H-pyrazol-3-yl]urea] | 4.3 | 33.5
2 | CNC(=O)c1cc(Oc2ccc(NC(=O)Nc3cc(-c4ccco4)nn3-c3ccc(F)cc3)cc2)ccn1 [Compound 3, 1-[4-(2-Methylaminocarbonylpyridin-4-yloxy)phenyl]-3-[5-(furan-2-yl)-2-(4-fluorophenyl)-2H-pyrazol-3-yl]urea] | 9.7 | 74.8

Other lines, results leading:

Row | IC50 (TIE-2) [nM] | IC50 (VEGFR (KDR)) [nM] | SMILES
3 | 6.5 | 110 | CNC(=O)c1cc(Oc2ccc(NC(=O)Nc3cc(C(C)(C)C)nn3-c3ccc(F)cc3)cc2)ccn1 [Compound 1, 1-[4-(2-methylaminocarbonylpyridin-4-yloxy)phenyl]-3-[5-tert-butyl-2-(4-fluorophenyl)-2H-pyrazol-3-yl]urea]
4 | 7.2 | 58 | CNC(=O)c1cc(Oc2ccc(NC(=O)Nc3cc(C(C)(C)C)nn3-c3ccc(C)cc3)cc2)ccn1 [Compound 8, 1-[4-(2-Methylaminocarbonylpyridin-4-yloxy)phenyl]-3-[5-tert-butyl-2-(p-tolyl)-2H-pyrazol-3-yl]urea]
5 | 3.2 | 134 | CNC(=O)c1cc(Oc2ccc(NC(=O)Nc3cc(C(C)(C)C)nn3-c3cccc(C(F)(F)F)c3)cc2)ccn1 [Compound 11, 1-[4-(2-Methylaminocarbonylpyridin-4-yloxy)phenyl]-3-[5-tert-butyl-2-(3-trifluoromethylphenyl)-2H-pyrazol-3-yl]urea]
